Measurements reported in PubChem BioAssay (NCI).
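These data come from cells grown in 96-well plates and exposed to compound for 48 hours at five concentrations. TGI denotes the concentration required for complete inhibition of growth.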

Key:
Test in all cases: DTP human tumour cell line panel, 48 h
786-0 renal = system: 786-0 renal
A498 renal = system: A498 renal
A549 NSCLC = system: A549 NSCLC
ACHN renal = system: ACHN renal
BT-549 breast = system: BT-549 breast
CAKI-1 renal = system: CAKI-1 renal
COLO 205 colon = system: COLO 205 colon
DU-145 prostate = system: DU-145 prostate
EKVX NSCLC = system: EKVX NSCLC
HCC-2998 colon = system: HCC-2998 colon
HCT-116 colon = system: HCT-116 colon
HCT-15 colon = system: HCT-15 colon
HOP-62 NSCLC = system: HOP-62 NSCLC
HOP-92 NSCLC = system: HOP-92 NSCLC
HS 578T breast = system: HS 578T breast
HT29 colon = system: HT29 colon
IGROV1 ovarian = system: IGROV1 ovarian
K-562 leukemia = system: K-562 leukemia
KM12 colon = system: KM12 colon
LOX IMVI melanoma = system: LOX IMVI melanoma
M14 melanoma = system: M14 melanoma
MALME-3M melanoma = system: MALME-3M melanoma
MCF7 breast = system: MCF7 breast
MDA-MB-231 breast = system: MDA-MB-231 breast
MDA-MB-435 = system: MDA-MB-435
MDA-N = system: MDA-N
MOLT-4 leukemia = system: MOLT-4 leukemia
NCI-H226 lung = system: NCI-H226 lung
NCI-H23 lung = system: NCI-H23 lung
NCI-H460 lung = system: NCI-H460 lung
NCI-H522 lung = system: NCI-H522 lung
NCI/ADR-RES ovarian = system: NCI/ADR-RES ovarian
OVCAR-3 ovarian = system: OVCAR-3 ovarian
OVCAR-4 ovarian = system: OVCAR-4 ovarian
OVCAR-5 ovarian = system: OVCAR-5 ovarian
OVCAR-8 ovarian = system: OVCAR-8 ovarian
PC-3 prostate = system: PC-3 prostate
RPMI-8226 leukemia = system: RPMI-8226 leukemia
SF-268 CNS = system: SF-268 CNS
SF-295 CNS = system: SF-295 CNS
SF-539 CNS = system: SF-539 CNS
SK-MEL-2 melanoma = system: SK-MEL-2 melanoma
SK-MEL-28 melanoma = system: SK-MEL-28 melanoma
SK-MEL-5 melanoma = system: SK-MEL-5 melanoma
SK-OV-3 ovarian = system: SK-OV-3 ovarian
SN12C renal = system: SN12C renal
SNB-19 CNS = system: SNB-19 CNS
SNB-75 CNS = system: SNB-75 CNS
SW-620 colon = system: SW-620 colon
T-47D breast = system: T-47D breast
TK-10 renal = system: TK-10 renal
U251 CNS = system: U251 CNS
UACC-257 melanoma = system: UACC-257 melanoma
UACC-62 melanoma = system: UACC-62 melanoma
UO-31 renal = system: UO-31 renal
CCRF-CEM leukemia = system: CCRF-CEM leukemia
RXF 393 renal = system: RXF 393 renal

Measured: TGI

COc1ccc(N2C(=O)C3c4[nH]c5cccc(Cl)c5c4C4CCC(C(C)(C)C)CC4C3C2=O)cc1 (configuration not stated)
53.2 µM: SNB-75 CNS
90.7 µM: HS 578T breast
53.5 µM: HOP-62 NSCLC
> 100 µM: 786-0 renal | A498 renal | A549 NSCLC | ACHN renal | BT-549 breast | CAKI-1 renal | COLO 205 colon | DU-145 prostate | EKVX NSCLC | HCC-2998 colon | HCT-116 colon | HCT-15 colon | HOP-92 NSCLC | HT29 colon | IGROV1 ovarian | K-562 leukemia | KM12 colon | LOX IMVI melanoma | M14 melanoma | MALME-3M melanoma | MCF7 breast | MDA-MB-231 breast | MDA-MB-435 | MDA-N | MOLT-4 leukemia | NCI-H226 lung | NCI-H23 lung | NCI-H460 lung | NCI-H522 lung | NCI/ADR-RES ovarian | OVCAR-3 ovarian | OVCAR-4 ovarian | OVCAR-5 ovarian | OVCAR-8 ovarian | PC-3 prostate | RPMI-8226 leukemia | SF-268 CNS | SF-295 CNS | SF-539 CNS | SK-MEL-2 melanoma | SK-MEL-28 melanoma | SK-MEL-5 melanoma | SK-OV-3 ovarian | SN12C renal | SNB-19 CNS | SW-620 colon | T-47D breast | TK-10 renal | U251 CNS | UACC-257 melanoma | UACC-62 melanoma | UO-31 renal

C=CCN(c1cc(OCc2ccccc2)c2c(c(C)cn2S(=O)(=O)c2ccc([N+](=O)[O-])cc2)c1[N+](=O)[O-])S(C)(=O)=O
54.1 µM: MDA-MB-435
> 100 µM: 786-0 renal | A549 NSCLC | ACHN renal | BT-549 breast | CAKI-1 renal | COLO 205 colon | DU-145 prostate | EKVX NSCLC | HCC-2998 colon | HCT-116 colon | HCT-15 colon | HOP-62 NSCLC | HOP-92 NSCLC | HS 578T breast | HT29 colon | IGROV1 ovarian | K-562 leukemia | KM12 colon | LOX IMVI melanoma | M14 melanoma | MALME-3M melanoma | MCF7 breast | MDA-MB-231 breast | MDA-N | MOLT-4 leukemia | NCI-H226 lung | NCI-H23 lung | NCI-H460 lung | NCI-H522 lung | NCI/ADR-RES ovarian | OVCAR-3 ovarian | OVCAR-4 ovarian | OVCAR-5 ovarian | OVCAR-8 ovarian | PC-3 prostate | RPMI-8226 leukemia | RXF 393 renal | SF-268 CNS | SF-295 CNS | SF-539 CNS | SK-MEL-2 melanoma | SK-MEL-28 melanoma | SK-MEL-5 melanoma | SK-OV-3 ovarian | SN12C renal | SNB-19 CNS | SNB-75 CNS | T-47D breast | TK-10 renal | U251 CNS | UACC-257 melanoma | UACC-62 melanoma | UO-31 renal
> 52.3 µM: CCRF-CEM leukemia

C[C@@H]1OC(=O)C[C@H]2CC(=O)N(CCC3CN(C(=O)c4ccccc4)c4ccccc43)C[C@@H]21 (some centres not stated)
> 100 µM: 786-0 renal | A498 renal | A549 NSCLC | ACHN renal | BT-549 breast | CAKI-1 renal | COLO 205 colon | DU-145 prostate | EKVX NSCLC | HCC-2998 colon | HCT-116 colon | HCT-15 colon | HOP-62 NSCLC | HOP-92 NSCLC | HS 578T breast | HT29 colon | IGROV1 ovarian | K-562 leukemia | KM12 colon | M14 melanoma | MALME-3M melanoma | MCF7 breast | MDA-MB-231 breast | MDA-MB-435 | MDA-N | MOLT-4 leukemia | NCI-H23 lung | NCI-H460 lung | NCI-H522 lung | NCI/ADR-RES ovarian | OVCAR-3 ovarian | OVCAR-4 ovarian | OVCAR-5 ovarian | OVCAR-8 ovarian | PC-3 prostate | RPMI-8226 leukemia | RXF 393 renal | SF-268 CNS | SF-295 CNS | SK-MEL-2 melanoma | SK-MEL-28 melanoma | SK-MEL-5 melanoma | SK-OV-3 ovarian | SNB-19 CNS | SNB-75 CNS | SW-620 colon | T-47D breast | TK-10 renal | U251 CNS | UACC-257 melanoma | UACC-62 melanoma | UO-31 renal

Cc1n[nH]c(=O)n1/N=C/c1cccc(Cl)c1
> 100 µM: 786-0 renal | A498 renal | A549 NSCLC | ACHN renal | BT-549 breast | CAKI-1 renal | CCRF-CEM leukemia | COLO 205 colon | DU-145 prostate | EKVX NSCLC | HCC-2998 colon | HCT-116 colon | HCT-15 colon | HOP-62 NSCLC | HT29 colon | K-562 leukemia | KM12 colon | M14 melanoma | MALME-3M melanoma | MCF7 breast | MDA-MB-231 breast | MDA-MB-435 | MDA-N | MOLT-4 leukemia | NCI-H226 lung | NCI-H23 lung | NCI-H460 lung | NCI/ADR-RES ovarian | OVCAR-3 ovarian | OVCAR-4 ovarian | OVCAR-5 ovarian | OVCAR-8 ovarian | PC-3 prostate | RPMI-8226 leukemia | RXF 393 renal | SF-268 CNS | SF-295 CNS | SF-539 CNS | SK-MEL-2 melanoma | SK-MEL-28 melanoma | SK-OV-3 ovarian | SN12C renal | SNB-19 CNS | SNB-75 CNS | SW-620 colon | T-47D breast | U251 CNS | UACC-257 melanoma | UACC-62 melanoma | UO-31 renal
39.7 µM: HS 578T breast

COc1ccc(-n2cnc3c(N)nc(N)nc32)cc1
87 µM: HS 578T breast
> 100 µM: 786-0 renal | A498 renal | A549 NSCLC | ACHN renal | BT-549 breast | CAKI-1 renal | CCRF-CEM leukemia | COLO 205 colon | DU-145 prostate | EKVX NSCLC | HCC-2998 colon | HCT-116 colon | HCT-15 colon | HOP-62 NSCLC | HOP-92 NSCLC | HT29 colon | IGROV1 ovarian | KM12 colon | M14 melanoma | MALME-3M melanoma | MCF7 breast | MDA-MB-231 breast | MDA-MB-435 | MDA-N | MOLT-4 leukemia | NCI-H226 lung | NCI-H23 lung | NCI-H522 lung | NCI/ADR-RES ovarian | OVCAR-3 ovarian | OVCAR-4 ovarian | OVCAR-5 ovarian | OVCAR-8 ovarian | PC-3 prostate | RPMI-8226 leukemia | RXF 393 renal | SF-268 CNS | SF-295 CNS | SF-539 CNS | SK-MEL-2 melanoma | SK-MEL-28 melanoma | SK-MEL-5 melanoma | SK-OV-3 ovarian | SN12C renal | SNB-19 CNS | SW-620 colon | T-47D breast | TK-10 renal | U251 CNS | UACC-257 melanoma | UACC-62 melanoma | UO-31 renal
77.9 µM: SNB-75 CNS
